Data set [1] has as its target COX-2 (Rattus norvegicus, UniProt P35355). Put plainly: in vivo. The settings on record: read-out: COX-2 ED50. How it is done: (§1) In vivo cyclo-oxygenase selectivity was evaluated in rats by the method of Griffiths et al., described in Agents & Actions, 32, (1991), 313-320. […] Synovial fluid is secreted by the synovial membrane and is contained in joint cavities. During joint inflammation, COX-2 is induced in joint tissues and prostaglandin products accumulate in the synovial fluid. […] Inhibition of this stomach isozyme results in adverse gastrointestinal side effects.

The conditions of data set [2]: at equipotent anti-inflammatory activity with indomethacin, Holtsinger et al.; cited from earlier work.
Data set [3] concerns the target COX-2 (derived from lipopolysaccharide stimulated J774.2 macrophages) (Mus musculus, UniProt Q05769). The settings on record: cited from earlier work.
Data set [4] addresses COX-2 (Canis lupus familiaris, UniProt Q8SPQ9). Put plainly: in vivo. Particulars: for PGE2 Pg/mL/Well: individual dogs; for inhibition at 2 mg/kg / inhibition at 4 mg/kg: dog, po. How it is done:
A zero-hour blood sample was collected from all dogs in the study prior to dosing, followed by 2- and 4-hour post-dose blood sample collections. Test tubes were prepared containing 2 μL of lipopolysaccharide (LPS) to give a 10 μg/mL final concentration. Untreated test tubes were used as controls. A 500 μL sample of blood was added to each of the above-described test tubes, after which they were incubated at 37° C. overnight. After incubation […] of EDTA was added to give a final concentration of 0.3%. The incubated samples were centrifuged at 4° C. and the resulting plasma sample of 200 μL was collected and stored at −20° C. in propylene 96-well plates. Enzyme immunoassay (EIA) kits available from Cayman were used to measure production of PGE2, with endpoint determination by colorimetry. Plasma samples were diluted to 1/750 for PGE2.

Another data set addresses T1, canine COX-1 (Canis lupus familiaris, UniProt Q8HZR1).
T1 construct: from tissue; host or cells: washed platelets from donor dog blood
T1 sequence (Q8HZR1 28-603): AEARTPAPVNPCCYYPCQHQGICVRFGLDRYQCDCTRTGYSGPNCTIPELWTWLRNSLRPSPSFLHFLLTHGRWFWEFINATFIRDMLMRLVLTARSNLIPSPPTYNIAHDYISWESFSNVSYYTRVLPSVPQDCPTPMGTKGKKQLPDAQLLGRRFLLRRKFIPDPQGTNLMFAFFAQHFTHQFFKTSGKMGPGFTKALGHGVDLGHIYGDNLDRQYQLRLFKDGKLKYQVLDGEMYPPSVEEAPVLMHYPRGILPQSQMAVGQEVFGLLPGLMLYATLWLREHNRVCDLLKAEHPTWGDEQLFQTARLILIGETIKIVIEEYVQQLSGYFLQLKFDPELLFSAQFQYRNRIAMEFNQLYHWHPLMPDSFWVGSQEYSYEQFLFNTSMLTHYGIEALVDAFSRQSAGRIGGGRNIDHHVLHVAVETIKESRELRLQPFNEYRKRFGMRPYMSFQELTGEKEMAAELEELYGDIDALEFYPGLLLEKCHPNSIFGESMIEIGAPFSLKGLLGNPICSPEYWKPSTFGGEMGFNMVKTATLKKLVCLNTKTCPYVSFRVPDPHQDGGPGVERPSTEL
Put plainly: Canine COX-1 activity: washed canine platelets, A23187-stimulated TXB2 by EIA. The data set is classed as cell-based, dog. The settings on record: results of repeated tests averaged. How it is done:
Protocol for Evaluation of Canine COX-1 Activity
Test drug compounds were solubilized and diluted the day before the assay was to be conducted with 0.1 mL of DMSO/9.9 mL of Hank's balanced salts solution (HBSS), and stored overnight at 4° C. On the day that the assay was carried out, citrated blood was drawn from a donor dog, centrifuged at 190×g for 25 min at room temperature, and the resulting platelet-rich plasma was then transferred to a new tube for further procedures. The platelets were washed by centrifuging at 1500×g for 10 min at room temperature. The platelets were washed with platelet buffer comprising Hank's buffer (Ca free) with 0.2% bovine serum albumin (BSA) and 20 mM HEPES. […] Then, 100 μl of canine washed platelets were added and the samples were incubated at 37° C. for 15 min, after which the reaction was stopped by adding 20 μl of 77 mM EDTA. The plates were then centrifuged at 2000×g for 10 min at […], after which 50 μl of supernatant was assayed for thromboxane B2 (TXB2) by enzyme-immunoassay (EIA).

A further data set has as its target T2, COX-1 (Rattus norvegicus, UniProt Q63921).
T2 construct: as measured in the mucosal lining of the rat stomach; from tissue; host or cells: mucosal lining of the rat stomach, in vivo
T2 sequence (Q63921 27-602): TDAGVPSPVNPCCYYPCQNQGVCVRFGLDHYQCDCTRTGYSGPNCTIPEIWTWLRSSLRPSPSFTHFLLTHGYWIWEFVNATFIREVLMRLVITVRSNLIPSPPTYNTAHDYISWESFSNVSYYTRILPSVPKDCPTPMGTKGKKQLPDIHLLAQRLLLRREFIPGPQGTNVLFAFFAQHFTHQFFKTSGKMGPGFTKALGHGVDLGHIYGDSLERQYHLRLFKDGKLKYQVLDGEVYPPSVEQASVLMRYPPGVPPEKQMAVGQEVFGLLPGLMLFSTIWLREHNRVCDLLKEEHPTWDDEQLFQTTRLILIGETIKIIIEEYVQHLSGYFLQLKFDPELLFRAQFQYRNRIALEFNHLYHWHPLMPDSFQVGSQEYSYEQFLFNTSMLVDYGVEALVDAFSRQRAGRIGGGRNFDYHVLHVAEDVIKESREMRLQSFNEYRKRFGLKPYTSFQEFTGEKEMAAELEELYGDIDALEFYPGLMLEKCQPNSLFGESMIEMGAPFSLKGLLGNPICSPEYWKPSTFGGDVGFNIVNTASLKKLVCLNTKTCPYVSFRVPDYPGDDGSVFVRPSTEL
Put plainly: Rat in vivo COX-1: PGE2 production in mucosal lining of stomach (Griffiths et al.). On the procedure: as §1

The conditions of data set [5]: dog, in vivo, po. On the procedure:
Following oral dosing to dogs of an immediate release carprofen formulation at a dose of 2 mg/lb, plasma carprofen concentrations were above 10 μg/mL for approximately 10.5 hr. In accordance with the present invention, 2 mg/lb/day is within the range of preferred doses of carprofen.
Immediate release carprofen dosage forms containing doses of 1.8, 1.6, and 1.4 mg/lb maintain a plasma carprofen concentration above 10 μg/mL for 9.5 hrs, 8.5 hrs, and 7.5 hrs, respectively.

Where [6] appears, read: inspection of plot of plasma level vs % COX-2 inhibition (Example 3 data).

SMILES strings stand for the structures. Several values for one entry are separate records, joined by “and”; a condition that tells them apart may be missing. Identical values can stand only once. Like-named read-outs stand apart in the source and are kept apart here.

Sequence of COX-2 (Canis lupus familiaris, UniProt Q8SPQ9) (Q8SPQ9 18-604): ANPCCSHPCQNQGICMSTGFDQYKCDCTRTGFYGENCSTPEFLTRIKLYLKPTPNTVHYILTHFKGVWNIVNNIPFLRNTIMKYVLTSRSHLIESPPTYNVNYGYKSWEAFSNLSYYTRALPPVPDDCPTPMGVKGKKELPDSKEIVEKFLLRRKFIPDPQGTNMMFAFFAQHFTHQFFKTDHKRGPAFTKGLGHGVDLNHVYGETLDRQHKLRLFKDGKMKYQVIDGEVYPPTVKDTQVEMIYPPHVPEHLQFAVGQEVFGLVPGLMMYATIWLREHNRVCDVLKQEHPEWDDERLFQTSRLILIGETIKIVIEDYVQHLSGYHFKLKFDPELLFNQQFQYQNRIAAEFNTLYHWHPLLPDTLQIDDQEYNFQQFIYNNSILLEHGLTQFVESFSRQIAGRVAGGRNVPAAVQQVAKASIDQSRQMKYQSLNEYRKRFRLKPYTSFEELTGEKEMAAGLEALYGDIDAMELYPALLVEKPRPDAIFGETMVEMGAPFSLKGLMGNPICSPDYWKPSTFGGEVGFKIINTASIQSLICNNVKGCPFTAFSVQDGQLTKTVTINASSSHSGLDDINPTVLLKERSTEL
Sequence of COX-2 (derived from lipopolysaccharide stimulated J774.2 macrophages) (Q05769 18-604): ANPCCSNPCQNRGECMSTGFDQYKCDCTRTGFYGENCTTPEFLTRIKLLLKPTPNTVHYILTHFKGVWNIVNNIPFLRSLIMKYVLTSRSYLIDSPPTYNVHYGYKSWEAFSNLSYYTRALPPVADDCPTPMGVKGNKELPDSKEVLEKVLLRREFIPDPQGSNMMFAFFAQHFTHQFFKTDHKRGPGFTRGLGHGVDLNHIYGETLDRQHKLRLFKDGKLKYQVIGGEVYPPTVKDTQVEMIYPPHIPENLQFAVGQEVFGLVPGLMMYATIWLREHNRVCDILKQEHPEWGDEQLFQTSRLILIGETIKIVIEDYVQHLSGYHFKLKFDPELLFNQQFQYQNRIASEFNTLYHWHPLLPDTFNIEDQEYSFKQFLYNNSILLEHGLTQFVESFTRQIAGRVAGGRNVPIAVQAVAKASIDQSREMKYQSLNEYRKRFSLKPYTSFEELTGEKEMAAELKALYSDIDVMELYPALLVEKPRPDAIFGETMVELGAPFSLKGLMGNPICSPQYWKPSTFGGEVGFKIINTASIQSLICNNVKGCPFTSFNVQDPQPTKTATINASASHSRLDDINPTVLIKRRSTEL
Sequence of COX-2 (Rattus norvegicus, UniProt P35355) (P35355 18-604): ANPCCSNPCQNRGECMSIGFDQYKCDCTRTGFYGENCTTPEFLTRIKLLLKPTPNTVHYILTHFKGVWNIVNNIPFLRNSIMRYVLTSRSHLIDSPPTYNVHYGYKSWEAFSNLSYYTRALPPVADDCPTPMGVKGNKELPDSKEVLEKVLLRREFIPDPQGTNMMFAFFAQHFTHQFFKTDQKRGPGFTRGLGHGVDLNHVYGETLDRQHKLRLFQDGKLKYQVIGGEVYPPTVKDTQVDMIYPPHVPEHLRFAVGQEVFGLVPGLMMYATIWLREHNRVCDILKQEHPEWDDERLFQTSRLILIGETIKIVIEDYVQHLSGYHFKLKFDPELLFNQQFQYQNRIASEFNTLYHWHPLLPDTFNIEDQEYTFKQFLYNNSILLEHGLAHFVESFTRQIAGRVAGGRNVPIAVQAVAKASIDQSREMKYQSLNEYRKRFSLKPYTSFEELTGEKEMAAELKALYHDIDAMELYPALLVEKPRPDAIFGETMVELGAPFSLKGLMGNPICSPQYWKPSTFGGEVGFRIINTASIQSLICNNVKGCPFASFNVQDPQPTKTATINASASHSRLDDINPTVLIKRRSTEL

In the case of `CC(C(=O)O)c1ccc2c(c1)[nH]c1ccc(Cl)cc12` (racemic) [Carprofen (rac.), 6-chloro-α-methyl-9H-carbazole-2-acetic acid], the ED50 – broadly, the dose that gives a 50% effect, or the effect in half of the subjects – at COX-2 [1] is 0.63 mg/kg; at COX-1, 6.4 mg/kg. Moreover, the “ulcerogenic potential, times less than indomethacin” value in data set [2] is recorded as 16 times. Besides, the IC50 was 11 µM in data set [3] (read-out: IC50 (μM) COX-2, as shown by Battistini et al.); 11 µM in data set [3] (read-out: IC50 (μg/mL) COX-2, n=9, LPS stimulated J774.2 macrophages); 13.2 µM at canine COX-1. Further, the “PGE2 Pg/mL/Well” value at COX-2 [4] (2 mg/kg PO tablet, 0-hour (pre-dose)) is 293 Pg/mL/Well and 541 Pg/mL/Well and 409 Pg/mL/Well; at COX-2 [4] (4 mg/kg PO tablet, 0-hour (pre-dose)) it was 471 Pg/mL/Well and 393 Pg/mL/Well and 622 Pg/mL/Well; on COX-2 [4] (4 mg/kg PO tablet, 2-hour post-dose), 25 Pg/mL/Well and 21 Pg/mL/Well and 14 Pg/mL/Well; at COX-2 [4] (4 mg/kg PO tablet, 4-hour post-dose), 20 Pg/mL/Well and 25 Pg/mL/Well and 14 Pg/mL/Well. In addition, the inhibition at 2 mg/kg on COX-2 [4] (read-out: COX-2 activity Percent Inhibition, 2 mg/kg PO tablet, 2-hour, based on each dog's zero hour value) turned out to be 88%; at COX-2 [4] (read-out: COX-2 activity Percent Inhibition, 2 mg/kg PO tablet, 4-hour, based on each dog's zero hour value), 77%. Also, the inhibition at 4 mg/kg was determined as 95% on COX-2 [4] (read-out: COX-2 activity Percent Inhibition, 4 mg/kg PO tablet, 2-hour, based on each dog's zero hour value) and 96% at COX-2 [4] (read-out: COX-2 activity Percent Inhibition, 4 mg/kg PO tablet, 4-hour, based on each dog's zero hour value). Moreover, the “plasma carprofen concentration at which 80% COX-2 inhibition occurred” value on COX-2 [4] (setting [6]) is on record as “approximately 10 μg/mL”. For the same molecule, the “plasma carprofen concentration at which 90% COX-2 inhibition occurred” value on COX-2 [4] (setting [6]) is reported as “approximately 20 μg/mL”. For the same molecule, the “time plasma carprofen concentrations were above 10 μg/mL” value in data set [5] was “approximately 10.5 hr”.

Values taken from patent publication US20030212123A1, “COX-2 selective carprofen for treating pain and inflammation in dogs” (Pfizer Inc., priority 1997, published 2003).
